# Values joined by “and” are separate entries in the source; they are usually repeats but may differ in a detail not shown here. Identical values can stand only once. Like-named read-outs stand apart in the source and are kept apart here.
# How the values were obtained:
# [1] = in vitro; conditions: human
# Method: (§1) The biological results were determined as EC50 (anti-HIV potency), CC50 (cytotoxicity) and SI (selectivity index, the ratio of CC50/EC50). […]
# (§2) compounds were made directly in flat-bottomed 96-well microtiter trays by adding 100 μL medium to the 25 μL stock solution and transferring 25 μL of this solution to another well that contained 100 μL medium using a Biomek 3000 robot (Beckman Instruments, Fullerton, CA). Untreated control HIV- and mock-infected cell samples were included for each sample. HIV-1 WT strain (IIIB), HIV-1 drug-resistant strains including […]
# (§3) (50% cell culture infectious dose) or culture medium was added to either the infected or mock-infected wells of the microtiter tray. Mock-infected cells were used to evaluate the effect of test compounds on uninfected cells in order to assess its cytotoxicity.
# (§4) Exponentially growing MT-4 cells were centrifuged for 5 min at 1000 rpm and the supernatant was discarded.
# (§5) 50 μL volumes were transferred to the microtiter tray wells. Five days after infection, the viability of mock- and HIV-infected cells was examined spectrophotometrically by […]
# (§6) concentration of the test compound that reduced the viability of the mock-infected MT- […]
# [2] = test system: HIV-1 WT (IIIB); assay: microbe, parasite or virus in culture; format: cell-based; conditions: for EC50: Human immunodeficiency virus 1, IIIB; for SI IIIB: selectivity index, ratio of CC50/EC50
# Method: as §1, §2, §3, §4, §5, §6
# [3] = test system: HIV-1 K103N/Y181C double mutant (RES056); assay: microbe, parasite or virus in culture; format: cell-based; conditions: for EC50: Human immunodeficiency virus 1, MT4, read-out: EC50 RES056; for SI RES056: selectivity index, ratio of CC50/EC50
# Method: as §1, §2, §3, §4, §5, §6
# [4] = test system: HIV-1 F227L/V106A; assay: Anti-HIV-1 activity against F227L/V106A mutant strain, MTT method in MT-4 cells; format: cell-based; conditions: for EC50: Human immunodeficiency virus 1, MT4, read-out: EC50 F227L/V106A
# Text: (§7) According to the anti-HIV-1(WT) results, the promising compounds 18a(1–5), 18b(1–5) and 18c1 were chosen to further evaluate their inhibitory potency against the prevalent HIV-1 mutations, including L100I, K103N, Y181C, Y188L, E138K, and F227L/V106A. […]. page 20:
# (§8) or mock-infected wells of the microtiter tray. Mock-infected cells were used to evaluate
# (§9) supernatant was discarded.
# (§10) Five days after infection,
# (§11) 4 cells by 50%. […]
# [5] = test system: HIV-1 K103N; assay: Anti-HIV-1 activity against K103N mutant strain, MTT method in MT-4 cells; format: cell-based; conditions: Human immunodeficiency virus 1, MT4, read-out: EC50 K103N
# Text: as §7, §8, §9, §10, §11
# [6] = test system: HIV-1 E138K; assay: microbe, parasite or virus in culture; format: cell-based; conditions: Human immunodeficiency virus 1, MT4, read-out: EC50 E138K
# Method: as §2, §3, §4, §5, §6
# [7] = test system: HIV-1 L100I; assay: microbe, parasite or virus in culture; format: cell-based; conditions: Human immunodeficiency virus 1, MT4, read-out: EC50 L100I
# Method: as §2, §3, §4, §5, §6
# [8] = test system: HIV-1 Y188L; assay: Anti-HIV-1 activity against Y188L mutant strain, MTT method in MT-4 cells; format: cell-based; conditions: Human immunodeficiency virus 1, MT4, read-out: EC50 Y188L
# Text: as §7, §8, §9, §10, §11
# [9] = target: T1, WT HIV-1 RT (Human immunodeficiency virus type 1 group M subtype B, UniProt P04585); assay: biochemical
# T1 construct: purchased Roche
# Method: Section 4. HIV-1 RT inhibition assays
# A reverse transcriptase (RT) assay kit produced by Roche was selected for the RT inhibition assay.3 All the reagents for performing the RT reaction came with the kit and the ELSIA procedures for RT inhibition assay was carried out following the description in the kit protocol. Briefly, the reaction mixture containing template/primer complex, viral nucleotides (dNTPs) and RT in the incubation buffer with or without inhibitors was incubated for 1 h at 37 °C . After that, the reaction mixture was transferred to a streptavidine coated microtiter plate and incubated for another 1 h at 37 °C to make sure retranscriptional cDNA chain that consisted biotin labeled dNTPs bound to streptavidine. Then unbound dNTPs were removed using washing buffer and anti-DIG-POD working solution was added. After incubation for 1 h at 37 °C , the DIG-labeled dNTPs incorporated in cDNA were bound to the anti-DIG-POD antibody. The unbound
# [10] = in vivo; conditions: male, Sprague-Dawley, rat, plasma
# Method: (§15) SpragueDawley (SD) rats (180−200 g) were randomly divided into two groups to
# (§16) receive oral administration (10 mg/kg) or intravenous (2 mg/kg). A solution of
# (§17) compound 18b1 was prepared by dissolving in a mixture of polyethylene glycol (PEG)
# (§18) 400/normal saline (70/30, V/V) before the experiment. Blood samples (200 μL of blood
# (§19) each times) of the intravenous group were collected from the sinus jugular into
# (§20) h after dosing, and blood samples (200 μL of blood each times) of the oral
# (§21) used to determine the concentration of 18b1 in plasma. Briefly, 50 μL of plasma was
# (§22) and a 20 μL aliquot was injected for LCMS/MS analysis. Standard curves for 18b1 in
# (§23) blood were generated by the addition of S10 various concentrations of 18b1 together
# [11] = physchem; format: physicochemical; conditions: pH 7, aqueous buffer, kinetic from dmso stock
# Method: (§12) Section 7. Water solubility measurements
# temperature overnight. The saturated solution was filtrated through a filter membrane
# UV. The sample was performed in triplicate. For quantification, a model LC-20AT
# The flow rate was 1.0 mL/min,
# and injection volume was 20 μL. Aqueous concentration was determined by
# Section 8. CYP enzyme inhibition assay
# [12] = test system: HIV-1 Y181C; assay: Anti-HIV-1 activity against Y181C mutant strain, MTT method in MT-4 cells; format: cell-based; conditions: for EC50: Human immunodeficiency virus 1, MT4, read-out: EC50 Y181C, MT-4 cells, MTT method, mean ± SD, n ≥ 4
# Text: as §8, §9, §10, §11
# [13] = target: CYP2D6 (Homo sapiens, UniProt P10635); assay: in vitro; conditions: human, microsomes, IC50 CYP2D6
# Chain of CYP2D6 (P10635 whole entry): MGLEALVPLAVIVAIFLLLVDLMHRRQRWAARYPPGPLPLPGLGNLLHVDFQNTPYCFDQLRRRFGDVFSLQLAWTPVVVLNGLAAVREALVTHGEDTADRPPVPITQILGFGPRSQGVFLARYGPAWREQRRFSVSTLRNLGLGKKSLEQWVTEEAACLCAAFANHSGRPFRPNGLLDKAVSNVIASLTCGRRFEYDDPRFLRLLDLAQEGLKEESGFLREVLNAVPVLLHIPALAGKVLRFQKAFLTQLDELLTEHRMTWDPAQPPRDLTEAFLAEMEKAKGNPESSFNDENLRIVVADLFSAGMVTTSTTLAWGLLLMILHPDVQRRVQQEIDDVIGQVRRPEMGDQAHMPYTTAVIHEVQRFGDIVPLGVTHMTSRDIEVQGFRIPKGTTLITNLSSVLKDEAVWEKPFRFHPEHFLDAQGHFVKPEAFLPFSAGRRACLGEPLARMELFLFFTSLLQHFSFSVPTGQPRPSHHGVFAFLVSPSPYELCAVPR
# Method: Fig. S3 Decomposition of the binding free energy (per-residue) into contributions from electrostatic energy, vdw energy, polar solvation energy, and non-polar solvation energy. a K103N-18b1. b […]
# as §12
# Water solubility was measured in phosphate buffer at pH 7.0 by using an HPLC-UV method.17 Compounds were initially dissolved in DMSO at 10 mg/mL 10 μL of this stock solution was spiked into purified water (1 mL) with the final DMSO concentration being 1%. The mixture was ultrasonic for 2 h at room temperature and restored at room temperature overnight. The saturated solution was filtrated through a filter membrane (pore size = 0.22 μm) and transferred to other Eppendorf tubes for analysis by HPLC-UV. The sample was performed in triplicate. For quantification, a model LC-20AT HPLC-UV (SHIMADZU) system was used with an Inertsil ® ODS-SP-C18 column (150 mm × 4.6 mm, 5 μm) and MeOH/water as eluant. The flow rate was 1.0 mL/min, and injection volume was 20 μL. Aqueous concentration was determined by comparison of the peak area of the saturated solution with a standard curve plotted peak area versus known concentrations, which were prepared by solutions in MeOH at 200, […]
# (§13) Section 8. CYP enzyme inhibition assay […]
# Section 9. Pharmacokinetics studies […]
# approval from the Animal Ethical and Welfare Committee (AEWC). Ten male […]
# Blood samples (200 μL of blood
# Briefly, 50 μL of plasma was […]
# tube, which was centrifuged at 3000g for 10 min. The supernatant layer was collected […]
# Standard curves for 18b1 in […]
# with an internal standard to blank plasma. Then all samples were quantified with an […]
# [14] = In vivo pharmacokinetics in Sprague-Dawley rats; conditions: SD rat, 2.0 mg/kg i.v., mean ± SD, n = 3
# Method: as §15, §16, §17, §18, §19, §20, §21, §22, §23
# [15] = target: CYP2C19 (Homo sapiens, UniProt P33261); assay: in vitro; conditions: human, microsomes
# Chain of CYP2C19 (P33261 whole entry): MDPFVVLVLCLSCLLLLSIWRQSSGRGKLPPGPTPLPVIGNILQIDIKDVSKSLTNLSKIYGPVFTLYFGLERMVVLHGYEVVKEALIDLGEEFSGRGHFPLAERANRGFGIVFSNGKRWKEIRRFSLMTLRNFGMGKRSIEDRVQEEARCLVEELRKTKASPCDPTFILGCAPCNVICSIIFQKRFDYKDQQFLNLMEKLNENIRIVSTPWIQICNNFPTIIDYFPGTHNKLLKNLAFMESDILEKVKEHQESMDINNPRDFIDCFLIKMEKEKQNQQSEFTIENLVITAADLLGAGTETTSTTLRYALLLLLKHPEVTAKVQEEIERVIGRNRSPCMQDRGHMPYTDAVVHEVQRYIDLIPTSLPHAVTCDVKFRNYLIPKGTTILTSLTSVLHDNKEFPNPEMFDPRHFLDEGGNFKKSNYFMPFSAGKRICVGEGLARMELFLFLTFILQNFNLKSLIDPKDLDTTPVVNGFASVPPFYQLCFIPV
# Text: as §13
# (§14) Agilent 1200 LC/MSD (Agilent, USA).
# [16] = target: CYP2C9 (Homo sapiens, UniProt P11712); assay: in vitro; conditions: human, microsomes
# Chain of CYP2C9 (P11712 whole entry): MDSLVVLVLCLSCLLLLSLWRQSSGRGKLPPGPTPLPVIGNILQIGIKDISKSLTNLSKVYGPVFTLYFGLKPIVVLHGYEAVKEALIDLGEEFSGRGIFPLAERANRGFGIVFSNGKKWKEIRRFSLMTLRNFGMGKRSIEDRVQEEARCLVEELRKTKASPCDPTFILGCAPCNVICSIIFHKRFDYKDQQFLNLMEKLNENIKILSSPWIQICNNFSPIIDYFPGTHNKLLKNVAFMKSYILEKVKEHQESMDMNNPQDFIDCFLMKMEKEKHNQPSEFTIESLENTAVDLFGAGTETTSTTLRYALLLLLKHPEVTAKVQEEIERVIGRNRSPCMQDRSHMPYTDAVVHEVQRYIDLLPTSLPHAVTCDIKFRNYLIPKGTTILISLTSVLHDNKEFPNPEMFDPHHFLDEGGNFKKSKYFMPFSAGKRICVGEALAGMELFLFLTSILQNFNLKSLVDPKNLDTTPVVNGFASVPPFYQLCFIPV
# Text: as §13, §14
# [17] = test system: HIV-1 WT (IIIB); conditions: cited from earlier work; for EC50: MT-4 cells, MTT method, same laboratory, same method
# [18] = test system: HIV-1 K103N/Y181C double mutant (RES056); conditions: cited from earlier work
# [19] = test system: MT-4 cells; conditions: mock-infected MT-4 cells, MTT method, same laboratory; cited from earlier work
# [20] = MT4, MT-4 cells, MTT method, mean ± SD, n ≥ 4, read-out: EC50 IIIB
smiles,measurement,setting,value
"Cc1cn([C@H]2C[C@H](N=[N+]=[N-])[C@@H](CO)O2)c(=O)[nH]c1=O [AZT, zidovudine]",CC50 at 5 days,[1],> 7480 nM
same,EC50,"[2]; MT4, read-out: EC50 IIIB",32 ± 9.6 nM
same,SI IIIB,[2],>234
same,EC50,[3],37 ± 11 nM
same,SI RES056,[3],>200
Cc1cc(/C=C/C#N)cc(C)c1Oc1ccnc(Nc2ccc(CN3CCN(S(C)(=O)=O)CC3)cc2)n1 [BH-11c],EC50,[4],210 ± 95 nM
same,EC50,[5],3.7 ± 1.6 nM
same,EC50,[6],9.4 ± 5 nM
same,EC50,[7],14 ± 5.3 nM
same,EC50,[8],1320 ± 220 nM
CCS(=O)(=O)N1CCN(c2ccc(Nc3nccc(Oc4c(C)cc(C#N)cc4C)n3)cc2C#N)CC1 [Compound 17b2],CC50 at 5 days,[1],> 241000 nM
same,EC50,[2]; [20],6.6 ± 1.7 nM
same,SI IIIB,[2],">36,585"
same,EC50,[3],> 241000 nM
Cc1cc(/C=C/C#N)cc(C)c1Oc1ccnc(Nc2ccc(N3CCN(S(C)(=O)=O)CC3)c(C#N)c2)n1 [Compound 18b1],IC50,"[9]; read-out: IC50 against WT HIV-1 RT, inhibition of biotin deoxyuridine triphosphate incorporation into HIV-1 IIIB RT by 50%, mean ± SD, n = 2",93 ± 17 nM
same,fold more potent than lead compound BH-11c,"[4]; F227L/V106A strain, ratio of EC50",~ 20 fold
same,EC50,[4],9.9 ± 1.6 nM
same,CC50 at 5 days,[1],10200 ± 1820 nM
same,EC50,[5],1.7 ± 0.32 nM
same,EC50,[6],6.4 ± 0.54 nM
same,EC50,[7],3.7 ± 0.62 nM
same,AUC(0-inf),"[10]; iv, 2 mg/kg",792 ± 74.9 ng·h/mL
same,AUC(0-t),"[10]; iv, 2 mg/kg",785 ± 73.9 ng·h/mL
same,Cmax,"[10]; iv, 2 mg/kg",1230 ± 96.1 ng/mL
same,Tmax,"[10]; iv, 2 mg/kg",0.08 h
same,clearance,"[10]; iv, 2 mg/kg",42.3 mL/min/kg
same,half-life,"[10]; iv, 2 mg/kg",2.42 ± 0.34 h
same,bioavailability,"[10]; oral, 10 mg/kg",1.34%
same,AUC(0-inf),"[10]; po, 10 mg/kg",53.2 ± 8.32 ng·h/mL
same,AUC(0-t),"[10]; po, 10 mg/kg",45.1 ± 12.9 ng·h/mL
same,Cmax,"[10]; po, 10 mg/kg",16.1 ± 6.59 ng/mL
same,Tmax,"[10]; po, 10 mg/kg",3.5 ± 2.78 h
same,half-life,"[10]; po, 10 mg/kg",3.05 ± 1.44 h
same,solubility,[11],13.5 ± 0.49 µg/mL
same,EC50,"[2]; MT4, read-out: EC50 IIIB",1.4 ± 0.19 nM
same,SI IIIB,[2],7171
same,EC50,[3],93 ± 19 nM
same,SI RES056,[3],110
same,EC50,[12],6.4 ± 0.67 nM
same,fold potency enhancement over ETR,"[12]; Y181C strain, ratio of EC50",2.8 fold
same,EC50,[8],740 ± 210 nM
same,IC50 at 10 min,[13],> 10000 nM
same,V,[14],8.81 L/kg and 8.81 ± 0.72 L/kg
same,IC50 at 10 min,[15],8000 nM
same,IC50 at 10 min,[16],5300 nM
"Cn1c(Cn2ccc(C(F)(F)F)c(Oc3cc(Cl)cc(C#N)c3)c2=O)n[nH]c1=O [DOR, doravirine]",EC50,[17],13 ± 4 nM
same,SI IIIB,[17]; ratio of CC50/EC50,">21,940"
same,EC50,"[18]; MT-4 cells, MTT method, same laboratory, same method",15 ± 6 nM
same,SI RES056,[18]; ratio of CC50/EC50,>20136
same,CC50,[19],> 294000 nM
"O=C1Nc2ccc(Cl)cc2[C@@](C#CC2CC2)(C(F)(F)F)O1 [EFV, efavirenz]",EC50,[4],260 ± 100 nM
same,CC50 at 5 days,[1],> 6330 nM
same,EC50,[5],120 ± 24 nM
same,EC50,[6],6.5 ± 1.7 nM
same,EC50,[7],53 ± 28 nM
same,EC50,[2]; [20],3.7 ± 0.67 nM
same,EC50,[3],300 ± 190 nM
same,EC50,[8],250 ± 56 nM
"Cc1ccnc2c1NC(=O)c1cccnc1N2C1CC1 [NVP, Nevirapine]",EC50,[4],> 15000 nM
same,CC50 at 5 days,[1],> 15000 nM
same,EC50,[5],6040 ± 2660 nM
same,EC50,[7],2230 ± 980 nM
same,EC50,[2]; [20],190 ± 76 nM
same,EC50,[3],> 15000 nM
same,EC50,[12],7400 ± 1780 nM
same,EC50,[8],> 15000 nM
"Cc1cc(/C=C/C#N)cc(C)c1Nc1ccnc(Nc2ccc(C#N)cc2)n1 [RPV, rilpivirine]",IC50,[9],430 ± 87 nM
same,EC50,[17],1 ± 0.27 nM
